The values below come from publication PMC9873984, “Membrane cholesterol regulates inhibition and substrate transport by the glycine transporter, GlyT2” (Life Science Alliance, 2023).

Positions count from the first letter of the chain named.

Test [1] has as its target T1, GlyT2 Y430F mutant (Homo sapiens, UniProt Q9Y345, Y430F).
T1 sequence (Q9Y345 1-797 Y430F): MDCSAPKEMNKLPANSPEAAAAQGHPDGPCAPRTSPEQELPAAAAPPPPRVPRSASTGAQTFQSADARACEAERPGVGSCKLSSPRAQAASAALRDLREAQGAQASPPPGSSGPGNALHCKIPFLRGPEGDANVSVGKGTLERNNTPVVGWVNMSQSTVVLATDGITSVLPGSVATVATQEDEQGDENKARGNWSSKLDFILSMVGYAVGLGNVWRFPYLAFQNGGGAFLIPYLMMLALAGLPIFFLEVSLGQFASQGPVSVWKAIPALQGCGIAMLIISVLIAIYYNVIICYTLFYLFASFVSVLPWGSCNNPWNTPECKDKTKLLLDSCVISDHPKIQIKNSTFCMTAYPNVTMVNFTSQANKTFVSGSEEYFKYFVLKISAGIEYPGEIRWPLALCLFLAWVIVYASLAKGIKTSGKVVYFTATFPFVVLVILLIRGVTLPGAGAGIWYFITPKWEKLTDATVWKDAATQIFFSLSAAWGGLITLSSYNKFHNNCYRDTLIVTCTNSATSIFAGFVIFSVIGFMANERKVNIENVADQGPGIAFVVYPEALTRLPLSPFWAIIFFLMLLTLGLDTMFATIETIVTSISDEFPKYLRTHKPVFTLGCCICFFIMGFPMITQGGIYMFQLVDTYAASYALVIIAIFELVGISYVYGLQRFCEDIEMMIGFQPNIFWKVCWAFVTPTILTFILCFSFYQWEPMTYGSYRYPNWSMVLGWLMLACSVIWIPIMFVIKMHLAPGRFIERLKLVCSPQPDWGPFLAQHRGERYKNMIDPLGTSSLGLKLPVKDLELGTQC
Nature of the test: Inhibitor concentration–responses on glycine transport currents, two-electrode voltage clamp. Type of test: cell-based. Also on record: expressed in transfected cells; host or cells: Xenopus laevis oocytes injected with mutant RNA (pOTV vector). The following applies: for IC50: Y430F GlyT2 in Xenopus laevis oocytes. How it is done:
(§1) Because of the slowly reversible nature of the compounds tested, inhibitor concentration–responses were performed cumulatively. An EC50 concentration of glycine was applied until a stable transport current was reached. EC50 concentrations of glycine were used to produce reliable currents for each transporter, and as the inhibitors are non-competitive, application of varying glycine concentrations is unlikely to affect their activity. Increasing concentrations of inhibitors were co-applied with glycine with each concentration producing a distinct plateau before the subsequent concentration was applied. Inhibitor concentration–responses were limited to a maximum concentration of 3 µM to mitigate the risk of changes to the free drug concentration because of micelle formation. Currents after the plateau of each inhibitor concentration were normalized to the current produced by application of glycine alone and fit using the method of least squares: Y=Bottom+(Top−Bottom)/(1+10^[X−LogIC50]), where X is log [inhibitor], Y is current normalized to glycine in the absence of inhibitor, and Top and Bottom are the maximal and minimal plateaus, respectively. The method of least squares was constrained to have the bottom value >0 and the hill slope as −1, enabling the calculation of IC50 values and the extent of inhibition produced by the maximal concentration applied.
(§2) IC50 values are presented as the mean and 95% confidence interval, whereas inhibition values are presented as the mean ± SEM. Data sets are n ≥ 5 from two batches of oocytes.
Background: Two-electrode voltage clamp is typically applied to oocytes expressing channels or transporters.

For test [2], the target named is T2, GlyT2 Y430L mutant (Homo sapiens, UniProt Q9Y345, Y430L).
T2 sequence (Q9Y345 1-797 Y430L): T1 sequence (Q9Y345 1-797 Y430F) with F430L
The test is described as above. It counts as cell-based. The following applies: for IC50: Y430L GlyT2 in Xenopus laevis oocytes. On the set-up: expressed in transfected cells; host or cells: Xenopus laevis oocytes injected with mutant RNA (pOTV vector). The procedure:
as §1, §2

A word on the IC50: it is the concentration at which inhibition is half-maximal. A high value points to weaker potency. The Inhibition is the change of the read-out against control, counted positive when it falls. The low end stands for a weak effect, the high end for a strong effect. `CCCCCCCC/C=C\CCCCCCCC(=O)O[C@H](CC(=O)[O-])C[N+](C)(C)C` [Oleoyl-L-Carnitine, oleoyl-L-carnitine]: the IC50 in test [1] was 190 nM; in test [2] (95% CI could not be fit), 1100 nM. Also, the “Inhibition at 1 µM (column head 3 μM, footnote b)” value is on record as 71.0 ± 3.3^*b % in test [1] (Y430F, 1 µM) and 49.6 ± 2.9^b % in test [2] (Y430L, 1 µM).
For the compound `CCCCCCCC/C=C\CCCCCCCC(=O)N[C@@H](CC(C)C)C(=O)O` [Oleoyl-L-Leucine, oleoyl-L-leucine], the IC50 in test [1] was found to be 203 nM; in test [2] it was 375 nM. Further, the “Inhibition at 3 μM” value in test [1] (Y430F) is given as 76.7 ± 2.8%; in test [2] (Y430L) it was 63.8 ± 2.6%.
On to `CCCCCCCC/C=C\CCCCCCCC(=O)N[C@@H](CCCCN)C(=O)O` [Oleoyl-L-Lysine, oleoyl-L-lysine], for which the half-inhibitory concentration (IC50) is 123 nM in test [1], 863 nM in test [2] and 860 nM in test [2] (listed as OLLys). Moreover, the “Inhibition at 3 μM” value in test [1] (Y430F) is 92.9 ± 1.7%; in test [2] (Y430L) it was 69.7 ± 4.7 %. In test [2] (Y430L vs WT), the “Reduction of potency compared with WT” value is “fourfold”.
With `CCCCCCCC/C=C\CCCCCCCC(=O)N[C@@H](Cc1c[nH]c2ccccc12)C(=O)O` [Oleoyl-L-Tryptophan, oleoyl-L-tryptophan], the IC50 turned out to be 125 nM in test [1] and 57 nM in test [2]. Moreover, the entries for the “Inhibition at 3 μM” value in test [1] (Y430F) and in test [2] (Y430L) were 84.5 ± 3.6% and 83.5 ± 3.2%, respectively.
